Test results from patent US20130237496A1, “ACTIVE INGREDIENT OBTAINED FROM CICHORIUM INTYBUS FOR ACTING ON THE BARRIER FUNCTION OF THE SKIN THAT IS SIMILAR TO THAT OF VITAMIN D” (SOCIETE INDUSTRIELLE LIMOUSINE D'APPLICATION BIOLOGIQUE, priority 2012, published 2013).

Assays:
Assay type in all cases: cell-based
[1] = test system: Aged reconstructed epidermis; assay: Thickness of reconstructed epidermis from aged human keratinocytes (HE coloring)
Description: (§1) The object of this study is to evaluate the capacity of a Cichorium intybus root hydrolyzate comprising oligofructosans to promote the construction of a stratified and functional epidermis starting from aged human keratinocytes obtained by successive replications. First, the young human keratinocytes (passage 1: […] Next, the reconstructed epidermis (RE) is obtained after the young or aged human keratinocytes are cultivated. On D12 and D19, the RE are recovered, fixed, dehydrated and included in paraffin. Sections (4 μm) are then made using a microtome. Next, an HE coloring, and then an immunohistological marking of the filaggrin, terminal differentiation marker, are carried out. The display is produced on a microscope coupled with an image analysis system: • The thickness of the epidermis (living cell layers) is measured on the histological sections after the HE coloring, • The synthesis of the filaggrin is proportional to the intensity of the fluorescence (green color) that is present in the reconstructed epidermis.

Cystatin E/M = assay: Expression of RNAm by quantitative PCR in human keratinocytes of aged donors: cystatin E/M; conditions: 10^−7M, 48 hours
Description: (§2) The object of this study is to evaluate the effect of a Cichorium intybus root hydrolyzate comprising oligofructosans (Example 1) on its capacity to modulate the expression of the RNAm coding for epidermal differentiation proteins: • Kruppel-like factor 4 (KLF4): transcription factor involved in the terminal differentiation of keratinocytes, • Cytokeratin 1 (CK1): components of intermediate keratin filaments, • Involucrin: protein of the cornified envelope, • Cystatin E/M: Inhibitor of lysosomal protease cysteines that are involved in the differentiation of keratinocytes and desquamation. • Kallikrein 5 (KLK5 or SCTE): stratum corneum tryptic enzyme involved in desquamation.
(§3) The study was done by quantitative PCR on normal human keratinocytes obtained from aged donors (age of greater than 60 years), according to the operating procedure described below.
(§4) On D0, the human keratinocytes of aged donors are inoculated and incubated at 37° C.
(§5) The cells are then incubated for 48 hours at 37° C.
(§6) On D4, the cells are recovered, and the total RNA are extracted. The RNA are reverse-transcripts, and the complementary DNA that are obtained are analyzed by quantitative PCR (quantitative polymerase chain reaction).
(§7) The quantification of the incorporation of fluorescence is measured continuously using a thermal cycler, and the relative quantification is carried out using software.

Involucrin = assay: Expression of RNAm by quantitative PCR in normal human keratinocytes: involucrin; conditions: aged human keratinocytes; 10^−7M; 48 hours
Description: (§8) The study consists in comparing the effect of these different fractions on the expression of the involucrin and the KLK5 by quantitative PCR on normal human keratinocytes, with the result obtained for the active ingredient according to the invention at 1%. The test protocol is the one described in Item II. […]
(§9) The study was done by quantitative PCR on normal human keratinocytes obtained from aged donors (age of greater than 60 years), according to the operating procedure described below. […]
as §6, §7

Cytokeratin 1 (CK1) = assay: Expression of RNAm by quantitative PCR in human keratinocytes of aged donors: cytokeratin 1; conditions: 10^−7M, 48 hours
Description: as §2, §3, §4, §5, §6, §7

[2] = test system: Kruppel-like factor 4 (KLF4); assay: Expression of RNAm by quantitative PCR in human keratinocytes of aged donors: KLF4; conditions: 10^−7M, 48 hours
Description: as §2, §3, §4, §5, §6, §7

[3] = test system: Kallikrein 5 (KLK5 or SCTE); assay: Expression of RNAm by quantitative PCR in normal human keratinocytes: KLK5; conditions: aged human keratinocytes; 10^−7M; 48 hours
Description: as §8, §9, §6, §7

filaggrin = assay: Synthesis of filaggrin in reconstructed epidermis from aged human keratinocytes (immunohistological marking)
Description: as §1

In the case of `C=C1/C(=C\C=C2/CCC[C@]3(C)[C@@H]([C@H](C)CCCC(C)(C)O)CC[C@@H]23)C[C@@H](O)C[C@@H]1O` [Calcitriol, calcitriol], the “Thickness of the Epidermis (μm)” value ([1]; D12, 10^−8M) was 37.8 μm, the “Thickness of the Epidermis (μm)” value ([1]; D19, 10^−8M) was 58.6 (FIG. 1c) μm and the “RNAm Level/Control (%) Cystatin E/M” value (Cystatin E/M) was “+65%”. The “RNAm Level/Control (%) Involucrin” value (Involucrin) was “+42%”, the “RNAm Level/Control (%) Cytokeratin 1” value (Cytokeratin 1 (CK1)) was 0% and the “RNAm Level/Control (%) KLF4” value [2] was “+25%”. For the same molecule, the “RNAm Level/Control (%) KLK5” value [3] was “+26%”, the “Synthesis of Filaggrin (×10^4 UA)” value (filaggrin; D12, 10^−8M) was 116 ×10^4 UA and the “Synthesis of Filaggrin (×10^4 UA)” value (filaggrin; D19, 10^−8M) was 795 (FIG. 2c) ×10^4 UA.
